# In ChEMBL document CHEMBL5584341, “Discovery of Potent, Specific, and Orally Available NLRP3 Inflammasome Inhibitors Based on Pyridazine Scaffolds for the Treatment of Septic Shock and Peritonitis” (J Med Chem, 2024):
# The source made the active and inactive calls. The rule behind the calls is not given here.
# How the values were obtained:
# Cytochrome P450 1A2 = target: T1, Cytochrome P450 1A2 (Homo sapiens, UniProt P05177); assay: Inhibition of human CYP1A2 upto 10 uM relative to control; assay type: ADME
# T1 sequence (P05177 whole entry): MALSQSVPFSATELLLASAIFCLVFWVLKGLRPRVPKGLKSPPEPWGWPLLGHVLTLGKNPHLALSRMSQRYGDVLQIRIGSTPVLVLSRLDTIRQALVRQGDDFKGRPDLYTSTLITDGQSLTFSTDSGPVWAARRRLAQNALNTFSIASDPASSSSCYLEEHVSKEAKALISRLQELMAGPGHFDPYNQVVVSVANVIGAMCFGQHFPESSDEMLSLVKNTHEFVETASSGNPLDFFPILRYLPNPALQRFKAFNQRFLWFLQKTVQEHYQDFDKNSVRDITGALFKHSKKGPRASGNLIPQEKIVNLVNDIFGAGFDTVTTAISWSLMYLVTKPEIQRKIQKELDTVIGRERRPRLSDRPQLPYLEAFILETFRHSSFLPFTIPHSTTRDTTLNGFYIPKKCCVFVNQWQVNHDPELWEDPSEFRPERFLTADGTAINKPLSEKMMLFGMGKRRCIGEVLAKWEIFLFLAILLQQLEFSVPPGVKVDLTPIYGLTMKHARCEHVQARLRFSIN
# NRK-49F = assay: Cytotoxicity against rat NRK-49F cells at 5 to 20 uM incubated for 72 hrs by MTT assay; assay type: toxicity, cell-based; settings: dose 5-20 µM
# [1] = AUC(0 to t) in BALB/c mouse at 5 mg/kg, po measured upto 24 hrs by LC-MS/MS analysis; assay type: ADME, organism-based; settings: in vivo
# [2] = MRT(0 to t) in BALB/c mouse at 5 mg/kg, po measured upto 24 hrs by LC-MS/MS analysis; assay type: ADME, organism-based; settings: in vivo
# [3] = target: NACHT, LRR and PYD domains-containing protein 3 (Mus musculus) (UniProt Q8R4B8); assay: Inhibition of NLRP3 inflammasome activation in mouse BMDMs assessed as effect on TNF-alpha production at 2 to 31.25 nM pretreated with compound for 40 mins followed by LPS/ nigericin stimulation; assay type: cell-based; settings: BMDM, dose 2-31.25 nM
# THP-1 = assay: Inhibition of nigericin induced ASC oligomerization in PMA differentiated human THP-1 cells at 5 to 80 nM pretreated compound for 40 mins followed by nigericin stimulation by immunofluorescence analysis; assay type: functional, cell-based; settings: dose 5-80 nM
# [4] = Inhibition of IL-1beta release in PMA-differentiated/ LPS and nigericin stimulated human THP-1 cells pretreated with LPS for 3 hrs followed by incubation with compound for 40 mins and later stimulated with nigericin for 40 mins by ELISA; assay type: functional, cell-based
# [5] = Oral bioavailability in BALB/c mouse at 5 mg/kg measured upto 24 hrs by LC-MS/MS analysis; assay type: ADME, organism-based; settings: in vivo
# [6] = target: NACHT, LRR and PYD domains-containing protein 3 (Mus musculus) (UniProt Q8R4B8); assay: Inhibition of NLRP3 inflammasome activation in LPS/nigericin stimulated mouse BMDMs assessed as effect on NLRP3 expression pretreated with LPS for 3 hrs followed by compound addition for 40 mins prior to nigericin stimulation for 40 mins by Western blotting analysis; assay type: cell-based; settings: BMDM, time 80.0 min
# Mus musculus = assay: Inhibition of MSU crystal induced peritonitis in BALB/c mouse assessed as reduction in neutrophil recruitment at 50 to 100 mg/kg, ip pretreated with LPS for 3 hrs followed by compound addition prior to MSU stimulation for 6 hrs by ELISA; assay type: functional, organism-based; settings: dose 50-100 mg/kg
# [7] = Half-life in BALB/c mouse at 5 mg/kg, iv measured upto 24 hrs by LC-MS/MS analysis; assay type: ADME, organism-based; settings: in vivo
# [8] = Cmax in BALB/c mouse at 5 mg/kg, iv measured upto 24 hrs by LC-MS/MS analysis; assay type: ADME, organism-based; settings: in vivo
# LX-2 = assay: Cytotoxicity against human LX-2 cells at 20 uM incubated for 72 hrs by MTT assay; assay type: toxicity, cell-based; settings: lx-2, 72 h
# Cytochrome P450 2C9 = Cytochrome P450 2C9 (Homo sapiens, UniProt P11712); assay: Inhibition of human CYP2C9 upto 10 uM relative to control; assay type: ADME
# [9] = Cmax in BALB/c mouse at 5 mg/kg, po measured upto 24 hrs by LC-MS/MS analysis; assay type: ADME, organism-based; settings: in vivo
# [10] = target: NACHT, LRR and PYD domains-containing protein 3 (Mus musculus) (UniProt Q8R4B8); assay: Inhibition of NLRP3 inflammasome activation in LPS/nigericin stimulated mouse BMDMs assessed as effect on ASC expression pretreated with LPS for 3 hrs followed by compound addition for 40 mins prior to nigericin stimulation for 40 mins by Western blotting analysis; assay type: cell-based; settings: BMDM, time 80.0 min
# [11] = target: NACHT, LRR and PYD domains-containing protein 3 (Mus musculus) (UniProt Q8R4B8); assay: Inhibition of NLRP3 inflammasome activation in LPS/nigericin stimulated mouse BMDMs assessed as reduction in caspase-1 release pretreated with LPS for 3 hrs followed by compound addition for 40 mins prior to nigericin stimulation for 40 mins by Western blotting analysis; assay type: cell-based; settings: BMDM, time 80.0 min
# [12] = target: T2, Interferon-inducible protein AIM2 (Mus musculus) (UniProt Q91VJ1); assay: Inhibition of poly dA:dT stimulated AIM2 inflammasome activation in mouse BMDMs assessed as reduction in IL-1beta secretion at 0.1 to 10 uM pretreated with LPS for 3 hrs followed by compound addition for 40 mins prior to poly dA:dT stimulation for 6 hrs by ELISA; assay type: cell-based; settings: BMDM, dose 0.1-10 µM, time 400.0 min
# T2 sequence (whole entry): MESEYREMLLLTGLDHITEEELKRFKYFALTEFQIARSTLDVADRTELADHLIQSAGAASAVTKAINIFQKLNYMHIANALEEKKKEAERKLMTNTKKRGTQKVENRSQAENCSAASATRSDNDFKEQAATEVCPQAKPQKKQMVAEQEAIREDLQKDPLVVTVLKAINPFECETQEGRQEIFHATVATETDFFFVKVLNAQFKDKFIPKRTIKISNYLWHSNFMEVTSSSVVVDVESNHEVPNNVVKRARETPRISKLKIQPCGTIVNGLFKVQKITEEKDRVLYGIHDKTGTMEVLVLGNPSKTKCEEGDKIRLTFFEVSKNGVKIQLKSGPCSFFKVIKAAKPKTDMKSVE
# [13] = target: NACHT, LRR and PYD domains-containing protein 3 (Mus musculus) (UniProt Q8R4B8); assay: Inhibition of NLRP3 inflammasome activation in LPS stimulated mouse BMDMs assessed as reduction in IL-1beta release at 2 to 31.25 nM pretreated with LPS for 3 hrs followed by compound addition for 40 mins prior to alum stimulation for 6 hrs by ELISA; assay type: cell-based; settings: BMDM, dose 2-31.25 nM, time 400.0 min
# [14] = MRT(0 to t) in BALB/c mouse at 5 mg/kg, iv measured upto 24 hrs by LC-MS/MS analysis; assay type: ADME, organism-based; settings: in vivo
# [15] = target: NLR family CARD domain-containing protein 4 (Mus musculus) (UniProt Q3UP24); assay: Inhibition of flagellin stimulated NLRC4 inflammasome activation in mouse BMDMs assessed as reduction in IL-1beta secretion at 0.1 to 10 uM pretreated with LPS for 3 hrs followed by compound addition for 40 mins prior to flagellin stimulation for 6 hrs by ELISA; assay type: cell-based; settings: BMDM, dose 0.1-10 µM, time 400.0 min
# [16] = AUC(0 to t) in BALB/c mouse at 5 mg/kg, iv measured upto 24 hrs by LC-MS/MS analysis; assay type: ADME, organism-based; settings: in vivo
# [17] = Metabolic stability in human liver microsomes assessed as intrinsic clearance per g protein at 10 uM […] in presence of NADPH by LC-MS/MS analysis; assay type: ADME, Microsome
# Sequence of NACHT, LRR and PYD domains-containing protein 3 (Mus musculus) (Q8R4B8 whole entry, the tested form may be a part): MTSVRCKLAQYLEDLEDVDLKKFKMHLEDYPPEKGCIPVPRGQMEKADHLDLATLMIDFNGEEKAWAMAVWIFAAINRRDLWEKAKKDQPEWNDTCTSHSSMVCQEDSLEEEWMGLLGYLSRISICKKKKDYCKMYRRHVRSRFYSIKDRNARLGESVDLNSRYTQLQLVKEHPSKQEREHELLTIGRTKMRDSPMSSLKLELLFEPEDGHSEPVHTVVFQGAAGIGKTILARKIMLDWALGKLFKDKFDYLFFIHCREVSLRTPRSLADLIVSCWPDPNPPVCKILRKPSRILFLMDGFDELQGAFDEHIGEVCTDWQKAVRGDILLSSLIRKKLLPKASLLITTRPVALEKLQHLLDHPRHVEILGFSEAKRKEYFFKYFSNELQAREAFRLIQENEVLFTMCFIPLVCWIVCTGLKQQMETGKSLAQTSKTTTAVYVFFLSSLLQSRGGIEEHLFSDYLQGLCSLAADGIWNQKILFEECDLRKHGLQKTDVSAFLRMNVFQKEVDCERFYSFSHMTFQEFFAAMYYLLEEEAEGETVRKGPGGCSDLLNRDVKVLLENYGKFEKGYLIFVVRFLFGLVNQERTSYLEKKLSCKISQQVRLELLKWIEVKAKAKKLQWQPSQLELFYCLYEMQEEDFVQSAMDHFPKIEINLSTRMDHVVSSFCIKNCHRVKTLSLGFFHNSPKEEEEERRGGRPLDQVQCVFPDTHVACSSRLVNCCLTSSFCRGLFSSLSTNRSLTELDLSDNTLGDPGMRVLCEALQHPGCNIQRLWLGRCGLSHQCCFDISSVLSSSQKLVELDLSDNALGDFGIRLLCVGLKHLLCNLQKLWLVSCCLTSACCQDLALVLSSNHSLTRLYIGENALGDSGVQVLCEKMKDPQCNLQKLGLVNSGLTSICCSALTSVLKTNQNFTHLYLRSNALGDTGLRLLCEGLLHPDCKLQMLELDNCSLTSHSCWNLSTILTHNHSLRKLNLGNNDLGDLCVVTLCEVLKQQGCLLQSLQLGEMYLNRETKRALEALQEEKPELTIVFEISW
# Sequence of NLR family CARD domain-containing protein 4 (Mus musculus) (Q3UP24 whole entry, the tested form may be a part): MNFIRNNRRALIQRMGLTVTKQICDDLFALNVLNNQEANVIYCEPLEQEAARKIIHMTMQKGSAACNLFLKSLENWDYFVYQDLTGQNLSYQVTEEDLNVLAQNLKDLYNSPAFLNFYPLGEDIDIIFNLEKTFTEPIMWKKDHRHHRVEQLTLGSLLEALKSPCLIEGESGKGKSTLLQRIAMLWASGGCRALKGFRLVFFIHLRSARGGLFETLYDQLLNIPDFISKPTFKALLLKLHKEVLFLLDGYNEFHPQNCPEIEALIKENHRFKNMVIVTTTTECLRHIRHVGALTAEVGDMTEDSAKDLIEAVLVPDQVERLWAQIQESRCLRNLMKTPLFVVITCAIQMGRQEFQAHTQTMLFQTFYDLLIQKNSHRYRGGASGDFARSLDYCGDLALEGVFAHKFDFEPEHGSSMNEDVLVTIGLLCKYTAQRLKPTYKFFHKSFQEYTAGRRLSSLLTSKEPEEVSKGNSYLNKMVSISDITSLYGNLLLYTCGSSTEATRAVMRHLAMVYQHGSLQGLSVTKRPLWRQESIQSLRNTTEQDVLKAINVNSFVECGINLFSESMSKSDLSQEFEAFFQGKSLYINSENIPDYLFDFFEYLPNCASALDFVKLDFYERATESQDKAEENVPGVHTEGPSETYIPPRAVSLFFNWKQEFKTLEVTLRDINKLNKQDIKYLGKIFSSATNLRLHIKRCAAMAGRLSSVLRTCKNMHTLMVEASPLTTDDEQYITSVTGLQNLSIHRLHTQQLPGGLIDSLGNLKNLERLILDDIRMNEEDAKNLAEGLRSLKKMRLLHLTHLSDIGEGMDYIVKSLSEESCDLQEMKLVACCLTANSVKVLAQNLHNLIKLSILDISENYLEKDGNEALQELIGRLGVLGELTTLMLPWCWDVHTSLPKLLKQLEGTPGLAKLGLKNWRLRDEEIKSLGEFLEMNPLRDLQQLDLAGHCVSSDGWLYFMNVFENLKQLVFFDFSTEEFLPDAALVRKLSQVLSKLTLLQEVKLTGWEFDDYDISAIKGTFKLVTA
# Sequence of Cytochrome P450 2C9 (P11712 whole entry): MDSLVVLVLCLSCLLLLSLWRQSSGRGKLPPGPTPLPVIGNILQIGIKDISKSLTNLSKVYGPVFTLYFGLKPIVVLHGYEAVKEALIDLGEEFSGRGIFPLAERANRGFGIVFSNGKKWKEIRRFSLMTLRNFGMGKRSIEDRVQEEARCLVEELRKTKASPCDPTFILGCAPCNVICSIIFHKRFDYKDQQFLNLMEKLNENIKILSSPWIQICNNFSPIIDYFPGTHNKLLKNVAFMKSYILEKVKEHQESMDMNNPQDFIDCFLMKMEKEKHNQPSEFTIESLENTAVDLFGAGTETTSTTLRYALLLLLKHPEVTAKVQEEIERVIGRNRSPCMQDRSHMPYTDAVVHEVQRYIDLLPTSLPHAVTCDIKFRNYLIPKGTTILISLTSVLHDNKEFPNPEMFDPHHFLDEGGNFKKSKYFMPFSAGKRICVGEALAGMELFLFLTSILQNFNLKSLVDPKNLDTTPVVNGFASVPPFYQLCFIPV
compound,measurement,setting,value
OCCN1CCC[C@@H](Nc2nnc(-c3ccc4occc4c3O)c3c2C2CCC3CC2)C1,inhibition (INH),Cytochrome P450 1A2,Not Active
same,Activity,NRK-49F,Non-Toxic
same,AUC(0-t) at 24 h,[1],5940 ng·h/mL
same,MRT last at 24 h,[2],6.07 h
same,inhibition,[3],inactive
same,inhibition,THP-1,Active
same,IC50,[4],3 nM
same,bioavailability,[5],62%
same,inhibition,[6],inactive
same,inhibition,Mus musculus,Active
same,half-life,[7],3.51 h
same,Cmax,[8],3770 ng/mL
same,Activity,LX-2,Toxic
same,inhibition (INH),Cytochrome P450 2C9,Not Active
same,Cmax,[9],746 ng/mL
same,inhibition,[10],inactive
same,inhibition,[11],Dose-Dependent Effect
same,inhibition,[12],inactive
same,inhibition,[13],Active
same,MRT last at 24 h,[14],4.1 h
same,inhibition,[15],inactive
same,AUC(0-t) at 24 h,[16],9520 ng·h/mL
same,intrinsic clearance,[17],< 12 mL/min
